Here are results for two compounds from publication PMC8269693 (ACS Chemical Neuroscience, 2021).

Assay [1] has as its system TrkB. The assay is described as follows: TrkB activation in BR6 cells. It counts as cell-based, human. The following applies: data not shown.
The target in a further assay is GST-TrkB ECD (Homo sapiens, UniProt Q16620). The assay is described as follows: Biacore binding assay, GST-TrkB ECD.
The test system of a further assay is SH-SY5Y cells. The assay is described as follows: Protection from STS-induced cell death, MTT assay, TrkB-deficient SH-SY5Y cells. Format: cell-based.
A further assay deals with BR6 cells. The assay is described as follows: Protection from STS-induced cell death, MTT assay, BR6 cells. Format: cell-based, human.
Another assay concerns the target TrkB Ig2 (Homo sapiens, UniProt Q16620). The assay is described as follows: Biacore binding assay, TrkB Ig2.
A further assay deals with AD animal models. Particulars: cited from earlier work.
Assay [2] deals with TrkB. The assay is described as follows: TrkB activation in SH-SY5Y cells. It counts as cell-based. The following applies: data not shown.
In a further assay the target is TrkB Ig1 (Homo sapiens, UniProt Q16620). The assay is described as follows: Biacore binding assay, TrkB Ig1.
The test system of another assay is 5xFAD mice. The following applies: cited from earlier work.

SMILES strings stand for the structures.

Sequence of TrkB Ig1 (Q16620 182-250): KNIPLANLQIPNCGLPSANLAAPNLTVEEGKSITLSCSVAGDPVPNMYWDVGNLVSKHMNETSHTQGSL
Sequence of TrkB Ig2 (Q16620 251-340): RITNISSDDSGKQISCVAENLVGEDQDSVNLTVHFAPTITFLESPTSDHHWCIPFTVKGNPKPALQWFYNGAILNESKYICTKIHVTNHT
Sequence of GST-TrkB ECD (Q16620 32-428): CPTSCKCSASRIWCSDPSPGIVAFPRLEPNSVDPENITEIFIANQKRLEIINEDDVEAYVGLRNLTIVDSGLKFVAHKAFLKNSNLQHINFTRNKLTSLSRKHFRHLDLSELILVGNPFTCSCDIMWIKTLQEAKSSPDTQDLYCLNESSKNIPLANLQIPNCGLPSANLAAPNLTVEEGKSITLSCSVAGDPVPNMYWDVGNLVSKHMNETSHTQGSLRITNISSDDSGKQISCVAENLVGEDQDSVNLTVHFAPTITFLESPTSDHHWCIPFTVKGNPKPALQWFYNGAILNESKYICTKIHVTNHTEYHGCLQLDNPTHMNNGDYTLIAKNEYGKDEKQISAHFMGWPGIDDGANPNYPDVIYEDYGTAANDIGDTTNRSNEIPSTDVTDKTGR

`O=c1cc(-c2ccccc2)oc2c(O)c(O)ccc12` [7,8-DHF, 7,8-dihydroxyflavone]: the TrkB activation entry in the assay with TrkB [1] is recorded as “robustly provoked TrkB activation”; with TrkB [2] it was “barely visible”. Further, the dissociation constant Kd on GST-TrkB ECD came out at 184 nM. The “protective effect via MTT assay” value with SH-SY5Y cells is listed as “neither of them displayed a demonstrable effect”. The “protective profile via MTT assay” value in the assay with BR6 cells was “comparable protective profiles”. Moreover, the “association with Ig2 domain” value on TrkB Ig2 was “none of them associated with the Ig1 or Ig2 domains”. In addition, in the assay with AD animal models, the “levels of Aβ40 and Aβ42” value was “reduces the levels of Aβ40 and Aβ42”. Besides, in the assay with AD animal models (different AD animal models), the “learning and memory deficits” value was “rescues learning and memory deficits”. The “association with Ig1 domain” value on TrkB Ig1 was “none of them associated with the Ig1 or Ig2 domains”.

With `CNC(=O)Oc1ccc2c(=O)cc(-c3ccccc3)oc2c1OC(=O)NC` [R13], the Aβ deposition result in the assay with 5xFAD mice (chronic oral administration) is recorded as “inhibits Aβ deposition”. In addition, the memory deficits entry with 5xFAD mice (dose-dependent) is on record as “improves memory deficits”.
